The results in this text go back to PMC10112232, “Comparison of Toxicities among Different Bumped Kinase Inhibitor Analogs for Treatment of Cryptosporidiosis” (Antimicrobial Agents and Chemotherapy, 2023).

Read-outs that look alike come from different tables or passages of the source.

Data set [1] in a line: Multidose calf toxicity study. The class given is in vivo. As to conditions: calves. Here is the method: Male and female calves were dosed orally with 7.5 or 15 mg/kg BID for 5 days. Adverse effects began on day 4, so the 7.5 mg/kg group received 9 doses total and the 15 mg/kg group received 7 doses total before the experiment was terminated.
A control group of male and female rats were administered vehicle only for controls. […] Observations of feeding and general health were made twice daily. Clinical assessments were made at 1 h after each treatment. Blood was collected for hematology and blood chemistry before the first dose and prior to euthanasia. Necropsy and histology of organs (Liver, heart, lung, kidney, spleen, thymus, brain, spinal cord, nerves of the front and back legs, including muscle, bone marrow femur, stomach, small and large intestine, including lymph nodes, and femur and sternum, including epiphyseal plates, distal hind limb, and thyroid gland) were performed after euthanasia.

A short description of data set [2]: Multidose mouse toxicity, tibial epiphyseal growth plate. As to conditions: for gross signs of toxicity / width of the tibia epiphyseal growth plate vs vehicle controls: 3 week old mice, oral 150 mg/kg QD for 7 days; for width of the tibia epiphyseal growth plate vs vehicle controls: n = 3. The class given is in vivo. How it is done: The recurring presence of toxicity in calves manifesting as dropped pasterns, as well as the observations of bone toxicity in rats, led to the exploration of possible bone toxicity screening in mice to allow for screening prior to dosing in larger animals. To test for effects to the growth plate in developing bones, 3 week old mice were dosed for 7 days QD and euthanized 24 h after the final dose. The right and left tibia were dissected from each mouse and stained with AgNO3 to visualize the growth plate and measurements across the widths compared to vehicle-only treated controls. […] The remaining two mice for this treatment were immediately euthanized and their tibias extracted early on day 4.
Mouse toxicity testing and evaluation of the tibial epiphyseal plate have been previously described ([18], [38]) and were performed with some modifications. Briefly, 3 week old BALB/c mice (n = 3) were dosed orally once daily for 7 days. Mice were euthanized along with vehicle treated controls by cardiac puncture for collection of blood for analysis. Necropsy, obtaining blood for serum chemistries, histology of organs (brain, heart, lungs, spleen, liver, stomach, small intestine, large intestine and kidney), and removal of tibias were performed within 24 h of the final dose. Examination of organ histology included routine H&E and Oil-Red O (lipid)-stained organs from the treated mice and a set of untreated matched controls. Pathological examination was performed by a board certified pathologist who was blinded to the treatment and control group identities. Tibias were removed and immediately placed in dH2O for a minimum of 1 h. Using a fresh number 11 scalpel blade, a quick sagittal cut was made across the femoral condyle opposite the fibula, and a second cut was made across the second femoral condyle separating the fibula and tibia. The tibias were then immersed in acetone for 1 h to dehydrate. Dehydrated tibias were washed in dH2O for 2 min, then soaked in 1.5% AgNO3 for 1 min in a container protected from light. Tibias were then rinsed in dH2O for 2 min and exposed to strong light for 10 sec. Stained tibias were stored in 70% ethanol for >10 min before examining the growth plates at ×40 magnification using an Amscope stereo microscope with a mounted camera. Photos were taken using the Amscope image capture software. A calibration slide was used to establish a μm to pixel ratio of 1:1.184. Using the Measurement Tool, 10 measurements were taken across each epiphyseal plate by orienting the cursor at right angles from the growth plate borders by two different researchers (one set unblinded; one set blinded) and average width was assigned to each tibia from each animal.

Another data set deals with C. parvum. The data set can be described thus: Efficacy in neonatal calves infected with C. parvum. The class given is in vivo. Here is the method: (§1) There were also improvements in the treated calves in both fecal volume and consistency, urine output, weight gain and daily clinical scores compared to control calves (Fig. S3). […] Fecal volume, fecal consistency, and clinical scores were improved for all treatment groups compared to controls, but these improvements were delayed for the 1 mg/kg group.
Total oocyst excretion determined by RT-PCR concentration and total by fecal weight shed per day. (A) Oocyst excretion per day after treatment with BKI-1770. […] (C) Oocyst excretion per day after treatment with BKI-1841. (D) Cumulative total oocyst excretion for days 3 through 10 after treatment with BKI-1841. […] BKI-1841 BID treatments were administered on days 2 through 4 and QD treatments were administered on days 2 through 5. […] QD = once daily, BID = twice daily.
(§2) BKI-1841 was dosed at 5, 2, and 1 mg/kg BID for 3 days and 2 mg/kg QD for 4 days (Fig. 5, Fig. S4). […] Urine output was consistent for all groups, including controls, and fecal volume and consistency were improved for all groups over controls (Fig. S4). […] This occurred to some degree with all dosing regimens, developing with the fewest doses at 5 mg/kg BID. With the lowest dose of 1 mg/kg BID, the onset of dropped pasterns began after the third dose and continued until self-resolving 2 days after dosing concluded. All signs of dropped pasterns were gone by the end of the experiment on day 10 postinfection.
(§3) Methods for synthesis of BKIs ([17], [23]), efficacy against Nluc expressing C. parvum in infected adult IFN-γ KO mice ([6], [9]), in vivo mouse GI tract tissue exposure by LC/MS-MS analysis ([18], [28]), PK analysis of mouse plasma and brain tissue BKI concentrations by LC/MS-MS analysis ([29]), in vivo rat and dog cardiotoxicity screen ([30]), efficacy against IOWA-II strain C. parvum in infected neonatal calves ([13]), efficacy against C. hominis in infected piglets ([12]), in vitro inhibition of C. parvum CDPK1 (CpCDPK1) and human tyrosine kinase SRC (HsSRC) activity ([31]), in vitro inhibition of hERG ([32]), Nluc expressing C. parvum in vitro growth inhibition in infected HCT-8 cells ([6]), in vitro cytotoxicity in CRL-8155 and HepG2 cells ([29]), and mouse locomotor activity box ([33], [34]) have all been previously described. Analytes were measured by LC/MS-MS on an Acquity ultra performance liquid chromatography (UPLC) system in tandem with a Xevo TQ-S mass spectrometer (Waters, Milford, MA, USA).

A short description of data set [3]: Plasma concentrations and clinical toxicity signs in treated neonatal calves. As to conditions: for Cmax: bovine, plasma. The class given is in vivo, calf. How it is done:
as §1, §2

A short description of data set [4]: Mouse locomotor activity box. The format is in vivo. As to conditions: mice, 150 mg/kg QD for 5 days; for distance traveled / stereotypic horizontal activity / vertical rearing activity: vs controls. Here is the method:
BKIs –1770, -1841, and -1708 were tested in the mouse locomotor activity box to screen for possible neurological issues (Fig. S7). All three BKIs were dosed at 150 mg/kg QD for 5 days.
as §3

The nature of data set [5]: Pharmacokinetics in mice (plasma, brain, GI tissues) by LC/MS-MS. The format is in vivo, mouse. As to conditions: for Kp: mouse, brain, read-out: brain penetration (brain tissue to plasma area-under-the-curve). How it is done: For evaluation of its suitability for in vivo dosing, BKI-1841 was also tested in mice for plasma exposure after a single dose (Fig. 2). […] A dose of 25 mg/kg BKI-1841 was used to evaluate brain penetration over 4 h using the same method (Fig. 2).
as §3

Consider `CCOc1ccc2cc(-c3nn(C(C)(C)CCO)c(N)c3C(N)=O)ccc2c1` [BKI-1770], for which the bone findings entry in data set [1] (both 7.5 and 15 mg/kg BID groups) was “changes to the epiphyseal growth plates in the femur and sternum”. In data set [1] (oral 15 mg/kg BID, 7 doses total), the locomotion findings entry was “locomotion problems on days 2 and 3”. Moreover, in data set [2], the “gross signs of toxicity” value was “no gross signs of toxicity” and the “width of the tibia epiphyseal growth plate vs vehicle controls” value is “significant (P < 0.05) increases”. In the data set on C. parvum (5 mg/kg BID for 5 days (n = 5), days 3 to 10 postinfection, control 1.62E10), this compound gave a total oocysts excreted of 2.58E9 oocysts. The same compound had a minimal efficacious dose in the data set on C. parvum (BID) of 3 mg/kg. The “total oocyst excretion per day vs controls” value with C. parvum (all dosed groups (5, 3, 2, 1 mg/kg BID for 5 days)) is recorded as “significant differences”. In data set [3] (5 mg/kg BID for 5 days), the “hyperflexion of the limbs (dropped pasterns)” value is reported as “observed in two of the 5 mg/kg calves”. The bloody diarrhea entry in data set [3] (5 mg/kg BID, one calf) is “some bloody diarrhea”. Also, the Cmax in data set [3] (3 mg/kg BID, at 4 h post dose 1, read-out: plasma observed Cmax) is 3.4 ± 0.06 µM. Moreover, the Cmax in data set [3] (5 mg/kg BID, at 4 h post dose 5, read-out: plasma observed maximum concentration (Cmax)) was determined as 10.3 ± 5.4 µM. Also, in data set [4], the “overall effect on locomotor activity” value is listed as “depression in movement”, the distance traveled result is listed as “significant (P < 0.05) decrease in distance traveled from 20 to 60 min”, the stereotypic horizontal activity entry is on record as “increased horizontal activity from 0 to 40 min” and the vertical rearing activity entry is listed as “decreased vertical activity throughout the study”. The “time to depletion in plasma to submicromolar concentrations” value in data set [5] (mice, after oral dosing) was 1 to 2 h. In data set [5] (mice, single 30 mg/kg oral dose, through 12 h), this compound had an ileum tissue concentration of more than 1 µM. Besides, the Kp in data set [5] (mice, single 30 mg/kg oral dose) was determined as 0.1.

For the compound `CCOc1ccc2cc(-c3nn(C4CCOCC4)c(N)c3C(N)=O)ccc2n1` [BKI-1841], in data set [2], the “gross signs of toxicity” value was “no gross signs of toxicity” and the “width of the tibia epiphyseal growth plate vs vehicle controls” value is “did not show significant increases”. The “blood chemistry and histology vs control animals” value in data set [2] (mice (data not shown)) is “no abnormalities or indications of toxicity”. In addition, in the data set with C. parvum (1 mg/kg BID for 3 days), the “total oocyst excretion reduction” value is “little reduction”. In the data set with C. parvum (1 mg/kg group), the “total oocyst excretion per day vs controls” value is “no significant difference”. Besides, the “total oocyst excretion reduction” value in the data set with C. parvum (5 mg/kg BID for 3 days and 2 mg/kg BID given for 3 or 4 days) was in the range of 2 to 4 log. The “total oocyst excretion per day vs controls” value with C. parvum (5 mg/kg and both 2 mg/kg groups) is listed as “significant differences”. Besides, the predose plasma concentration in data set [3] (1 mg/kg BID, last day of treatment) turned out to be 1.3 ± 0.1 µM. For the same compound, the ataxia result in data set [3] (5 mg/kg BID, during the 3 days of dosing) is on record as “signs of ataxia”. In addition, the “hyperflexion of the limbs (dropped pasterns)” value in data set [3] (all dosing regimens (5, 2, 1 mg/kg BID 3 days; 2 mg/kg QD 4 days)) was “all calves dosed with BKI-1841 showed signs of hyperflexion of the limbs seen as dropped pasterns”. Moreover, the safety index in data set [3] (dropped pasterns at lowest dose tested (1 mg/kg BID)) was less than 1. In data set [4], the “overall effect on locomotor activity” value is recorded as “depression in movement”, the distance traveled result is reported as “significant (P < 0.05) decrease”, the stereotypic horizontal activity entry is given as “significant (P < 0.05) decrease” and the vertical rearing activity entry is listed as “significant (P < 0.05) decrease”. In data set [5] (for more than 6 h after a single 25 mg/kg dose in mice), this compound yielded a plasma exposure of more than 1 µM. In addition, the signs of toxicity entry in data set [5] (mice, single 25 mg/kg dose) was “no signs of toxicity”. In addition, in data set [5] (mice, single 25 mg/kg oral dose, over 4 h), the Kp was 0.27.
